What was measured:
[1] = spironolactone 100 mg/day coadministered with an ACE inhibitor; congestive heart failure; cited from earlier work
[2] = cited from earlier work
[3] = spironolactone 50 mg/day to 100 mg/day (average 73 mg/day) and captopril; 90-patient study; cited from earlier work
[4] = Human clinical trial of ACE inhibitor, spironolactone and loop diuretic: clinical laboratory values and neurohormones
[5] = Human clinical trial of ACE inhibitor, spironolactone and loop diuretic: weight, vital signs and cardiac assessments; format: in vivo, humans; conditions: for Supine diastolic BP, Mean Change from Baseline to Week 12 / Supine pulse, Mean Change from Baseline to Week 12 / Supine systolic BP, Mean Change from Baseline to Week 12 / Weight, Mean Change from Baseline to Week 12: with stable ACE inhibitor and loop diuretic, spread in parentheses
Text: Concurrent medication within the past 30 days. • 2. 12-lead ECG • 3. […] Signs and symptoms within the past 30 days.
All statistical methods were two-sided.

[6] = Human clinical trial of ACE inhibitor, spironolactone and loop diuretic: adverse events, hyperkalemia incidence, hospitalizations, deaths; conditions: patients previously at the 50 mg dose

## CC(=O)S[C@@H]1CC2=CC(=O)CC[C@]2(C)[C@H]2CC[C@@]3(C)[C@@H](CC[C@@]34CCC(=O)O4)[C@H]12 [Spironolactone, 17-hydroxy-7a-mercapto-3-oxo-17a-pregn-4-ene-21-carboxylic acid γ-lactone acetate]
[1]
  patients in whom treatment was highly effective: 13 of 16
[2]; cohort treated with spironolactone sub-cutaneously, side-by-side with a captopril cohort
  fibrosis in hypertensive rats: found to prevent fibrosis in the hypertensive-rat cohort
[2]; irrespective of left ventricular hypertrophy and hypertension
  fibrosis in animal models: shown to prevent fibrosis in animal models
[3]
  control of refractory CHF: effective to control refractory CHF without serious incidents of hyperkalemia
[4]; Day 9, Week 4 and Week 12 (P ≤0.001)
  PRA, change from baseline, dose-response: greater increases in PRA
[4]; Week 12 (p = 0.002)
  Urinary aldosterone excretion, change from baseline, dose response: Greater increases were seen at higher doses
[4]; all active treatments, all treatment visits
  N-Terminal Atrial Natriuretic Factor (ANF), change from baseline: decreases from baseline at all treatment visits
[4]; all treatment period visits (p <0.001)
  serum potassium, change from baseline, dose-response: larger increases in potassium
[5]; 25 mg, 50 mg and 75 mg groups, all visits, standing and supine
  mean systolic and diastolic blood pressure, change: decreases in mean systolic and diastolic blood pressure
[5]; 75 mg dose group, Day 9 and Week 4, not observed at later visits
  body weight, change from baseline: more weight loss than other patients
[5]; Day 9 (p = 0.019), not seen at later visits (p >0.20)
  sodium retention score, dose response: higher doses showing more reduction in sodium retention score
[5]; Week 8 (p = 0.004), compared to the placebo group, not observed at Week 12
  changes in loop diuretic therapy: more patients on the higher doses of spironolactone had decreases in the loop diuretic dose
[5]; spironolactone 25 mg/d
  Supine diastolic BP, Mean Change from Baseline to Week 12: -2.74 ( 9.57)
  Supine pulse, Mean Change from Baseline to Week 12: -1.40(10.00) BPM
  Supine systolic BP, Mean Change from Baseline to Week 12: -4.46(13.97)
  Weight, Mean Change from Baseline to Week 12: -0.16 (3.02)
[5]; spironolactone 50 mg/d
  Supine diastolic BP, Mean Change from Baseline to Week 12: -5.11(11.11)
  Supine pulse, Mean Change from Baseline to Week 12: -3.21(11.27) BPM
  Supine systolic BP, Mean Change from Baseline to Week 12: -7.04(15.83)
  Weight, Mean Change from Baseline to Week 12: 0.62 (2.05)
[5]; spironolactone 75 mg/d
  Supine diastolic BP, Mean Change from Baseline to Week 12: -5.91 (9.05)
  Supine pulse, Mean Change from Baseline to Week 12: -1.07(13.79) BPM
  Supine systolic BP, Mean Change from Baseline to Week 12: -5.68(15.62)
  Weight, Mean Change from Baseline to Week 12: -0.81 (2.70)
[5]; spironolactone groups vs placebo group
  NYHA Class, improvement: the difference was not statistically significant
[6]
  deaths within 30 days after the study was completed: Three patients died

From patent EP1201248A2, “Combination therapy of angiotensin converting enzyme inhibitor, side-effect reduced amount of aldosterone antagonist and diuretic for treatment of cardiovascular disease” (priority 1995, dated 1996)
